We go through 17 molecules from ChEMBL document CHEMBL3286334, “Identification of tetrapeptides from a mixture based positional scanning library that can restore nM full agonist function of the L106P, I69T, I102S, A219V, C271Y, and C271R human melanocortin-4 polymorphic receptors (hMC4Rs)” (J Med Chem, 2014).

Test [1] addresses Melanocortin receptor 4 (Homo sapiens, UniProt P32245, L106P). The test can be described thus: Agonist activity at human melanocortin-4 receptor L106P mutant expressed in HEK293 cells co-transfected with CRE/beta-galactosidase reporter gene assessed as stimulatory response after 6 hrs. It counts as functional, cell-based. On the technique in general: In a reporter assay the amount or activity of a reporter protein is the signal.

Test [2] concerns the target Melanocortin receptor 4 (Homo sapiens, UniProt P32245). Kind of test: Agonist activity at wild type human melanocortin-4 receptor expressed in HEK293 cells co-transfected with CRE/beta-galactosidase reporter gene assessed as stimulatory response after 6 hrs. It is filed as functional, cell-based.

Usually EC50 stands for the midpoint of the concentration-response curve.

Where a SMILES comes first, the peptide text is derived from it. [ ]: non-standard residue; d: D form. dTic = O=C(O)[C@H]1Cc2ccccc2CN1

Sequence of Melanocortin receptor 4 (Homo sapiens, UniProt P32245, L106P) (P32245 whole entry L106P): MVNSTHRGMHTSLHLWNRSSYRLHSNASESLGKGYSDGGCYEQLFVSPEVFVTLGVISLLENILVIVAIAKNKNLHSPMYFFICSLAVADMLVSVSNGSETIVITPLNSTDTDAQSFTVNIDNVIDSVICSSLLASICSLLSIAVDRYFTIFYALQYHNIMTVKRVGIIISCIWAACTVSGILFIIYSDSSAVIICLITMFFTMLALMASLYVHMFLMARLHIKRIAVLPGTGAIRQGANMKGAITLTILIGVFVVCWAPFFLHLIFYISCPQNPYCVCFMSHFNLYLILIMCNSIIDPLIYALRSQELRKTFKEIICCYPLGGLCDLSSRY
Sequence of Melanocortin receptor 4 (Homo sapiens, UniProt P32245) (P32245 whole entry): as the sequence (P32245 whole entry L106P) above, with P106L counted along it

As to `CC(=O)N1Cc2ccccc2C[C@H]1C(=O)N[C@H](Cc1ccc(Cl)cc1)C(=O)N[C@@H](CCCNC(=N)N)C(=O)N[C@H](Cc1ccc([N+](=O)[O-])cc1)C(N)=O`, the 50% effective concentration (EC50) at Melanocortin receptor 4 [1] amounted to 710 nM; on Melanocortin receptor 4 [2] it was 40 nM.

For `CC(=O)N1Cc2ccccc2CC1C(=O)N[C@H](Cc1ccc(Cl)cc1)C(=O)N[C@@H](CCCNC(=N)N)C(=O)N[C@@H](Cc1ccc(I)cc1)C(N)=O` (some centres undefined), the EC50 at Melanocortin receptor 4 [1] turned out to be 380 nM; on Melanocortin receptor 4 [2] it was 2.6 nM.

Take `CC(=O)N[C@@H](Cc1cnc[nH]1)C(=O)N[C@H](Cc1ccccc1)C(=O)N[C@@H](CCCNC(=N)N)C(=O)N[C@@H](Cc1ccc([N+](=O)[O-])cc1)C(N)=O`: the EC50 at Melanocortin receptor 4 [1] was found to be 23000 nM; at Melanocortin receptor 4 [2], 195 nM.

For the molecule `CC(=O)N[C@@H](Cc1cnc[nH]1)C(=O)N[C@H](Cc1ccccc1)C(=O)N[C@@H](CCCCN)C(=O)N[C@@H](Cc1c[nH]c2ccccc12)C(N)=O`, the concentration for a half-maximal effect (EC50) on Melanocortin receptor 4 [1] amounted to 6240 nM; at Melanocortin receptor 4 [2], 40 nM.

Regarding `CC(=O)N[C@@H](CCCNC(=N)N)C(=O)N[C@H](Cc1ccc(Cl)cc1)C(=O)N1Cc2ccccc2C[C@H]1C(=O)N1Cc2ccccc2C[C@H]1C(N)=O`, the EC50 at Melanocortin receptor 4 [1] was found to be 2450 nM; at Melanocortin receptor 4 [2], 250 nM.

Turning to `CC(=O)N1Cc2ccccc2C[C@@H]1C(=O)N[C@H](Cc1ccccc1)C(=O)N[C@@H](CCCN=C(N)N)C(=O)N[C@@H](Cc1c[nH]c2ccccc12)C(N)=O` (Ac-[dTic][dF]RW-NH2), the EC50 at Melanocortin receptor 4 [1] worked out at 17900 nM; on Melanocortin receptor 4 [2], 297 nM.

In the case of `CC(=O)N[C@H](CCCNC(=N)N)C(=O)N[C@H](Cc1ccccc1)C(=O)N[C@@H](CCCNC(=N)N)C(=O)N[C@@H](Cc1c[nH]c2ccccc12)C(N)=O`, the values for the half-maximal effective concentration (EC50) at Melanocortin receptor 4 [1] and on Melanocortin receptor 4 [2] were 1240 nM and 40 nM, respectively.

For `CC(=O)N[C@@H](Cc1c[nH]cn1)C(=O)N[C@H](Cc1ccc(Cl)cc1)C(=O)N[C@@H](CCCNC(=N)N)C(=O)N1Cc2ccccc2C[C@H]1C(N)=O`, the figures for the EC50 at Melanocortin receptor 4 [1] and on Melanocortin receptor 4 [2] were 7780 nM and 110 nM, respectively.

In the case of `CC(=O)N[C@@H](Cc1cnc[nH]1)C(=O)N[C@H](Cc1ccc(Cl)cc1)C(=O)N1Cc2ccccc2CC1C(=O)N[C@@H](Cc1ccc(I)cc1)C(N)=O` (some centres undefined), the concentration giving a half-maximal response (EC50) on Melanocortin receptor 4 [1] was determined as 790 nM; on Melanocortin receptor 4 [2], 15 nM.

As for `CC(=O)N[C@@H](CCCNC(=N)N)C(=O)N[C@H](Cc1ccc(I)cc1)C(=O)N1Cc2ccccc2C[C@H]1C(=O)N1Cc2ccccc2C[C@H]1C(N)=O`, the results for the EC50 on Melanocortin receptor 4 [1] and at Melanocortin receptor 4 [2] were 27500 nM and 2260 nM, respectively.

Take `CC(=O)N1Cc2ccccc2C[C@H]1C(=O)N[C@H](Cc1ccc(Cl)cc1)C(=O)N[C@@H](CCCNC(=N)N)C(=O)N1Cc2ccccc2C[C@H]1C(N)=O`: the concentration giving a half-maximal response (EC50) amounted to 15500 nM on Melanocortin receptor 4 [1] and 960 nM at Melanocortin receptor 4 [2].

Take `CC(=O)N[C@@H](CCCNC(=N)N)C(=O)N[C@H](Cc1ccc(I)cc1)C(=O)N[C@@H](CCCNC(=N)N)C(=O)N1Cc2ccccc2C[C@H]1C(N)=O`: the 50% effective concentration (EC50) worked out at 3170 nM on Melanocortin receptor 4 [1] and 57 nM on Melanocortin receptor 4 [2].

`CC(=O)N[C@@H](Cc1c[nH]cn1)C(=O)N[C@H](Cc1ccc(Cl)cc1)C(=O)N1Cc2ccccc2C[C@H]1C(=O)N1Cc2ccccc2C[C@H]1C(N)=O`: the concentration for a half-maximal effect (EC50) came to 11400 nM at Melanocortin receptor 4 [1] and 160 nM on Melanocortin receptor 4 [2].

For `CC(=O)N1Cc2ccccc2C[C@H]1C(=O)N[C@H](Cc1ccc(Cl)cc1)C(=O)N1Cc2ccccc2C[C@H]1C(=O)N[C@H](Cc1ccc([N+](=O)[O-])cc1)C(N)=O`, the results for the half-maximal effective concentration (EC50) on Melanocortin receptor 4 [1] and at Melanocortin receptor 4 [2] were 310 nM and 9.6 nM, respectively.

For `CC(=O)N1Cc2ccccc2CC1C(=O)N[C@H](Cc1ccc(I)cc1)C(=O)N[C@@H](CCCNC(=N)N)C(=O)N[C@@H](Cc1ccc(I)cc1)C(N)=O` (some centres undefined), the 50% effective concentration (EC50) at Melanocortin receptor 4 [1] worked out at 440 nM; on Melanocortin receptor 4 [2] it was 4.26 nM.

Take `CC(=O)N1Cc2ccccc2C[C@H]1C(=O)N[C@H](Cc1ccc(I)cc1)C(=O)N[C@@H](CCCNC(=N)N)C(=O)N1Cc2ccccc2C[C@H]1C(N)=O`: the EC50 on Melanocortin receptor 4 [1] came out at 2260 nM; at Melanocortin receptor 4 [2] it was 280 nM.

In the case of `CC(=O)N[C@@H](CCCNC(=N)N)C(=O)N[C@H](Cc1ccc(I)cc1)C(=O)N1Cc2ccccc2CC1C(=O)N[C@@H](Cc1ccc(I)cc1)C(N)=O` (some centres undefined), the figures for the concentration giving a half-maximal response (EC50) at Melanocortin receptor 4 [1] and on Melanocortin receptor 4 [2] were 2230 nM and 203 nM, respectively.
